Measured values reported in patent US11185557B2, “Use of rhamnose and derivatives thereof as antifungal agents” (ISDIN, S.A., priority 2017, dated 2021).

Test system: Malassezia furfur
Test: Ex-vivo antifungal activity assay on inoculated human skin explants, product applied 24 hours after inoculation, CFU quantification
Type: cell-based
Conditions: topical 2 mg/cm^2 applied 24 hours post inoculation, versus inoculum (C1) and untreated control explants (C2), FIG. 2
Experimental: Human organotypic skin cultures were obtained from abdominal skin removed during aesthetic surgery. These skin explants were altered by partial elimination of stratum corneum to facilitate the colonization and MF suspension was placed on the skin surface and incubated for 24 hours under conditions that are optimal for MF growth. 24 hours post initial MF inoculation, NSFC was topically applied on skin explants (2 mg/cm^2) and spread evenly. On control skin explants, inoculated in the same way, no product was applied (C2). A sham control group was treated with a neutral cream without known antifungal properties, petroleum jelly (P3). Growth of MF was monitored by quantifying MF Colony Forming Units (CFUs) in a sample removed from skin surface. The quantification of CFUs was carried out by recovering fungal microorganisms from skin explants and subsequent plating them following the serial dilution method to determine the number of CFUs.
The antifungal activity was evaluated for Ketoconazole 2% (P1), the composition of example 1 (P2), and petroleum jelly (Vaseline) (P3) with respect to the inoculum concentration (C1) and control skin explants (C2).

## CC(=O)N1CCN(c2ccc(OCC3COC(Cn4ccnc4)(c4ccc(Cl)cc4Cl)O3)cc2)CC1 (stereo not shown) [Ketoconazol 2%, ketoconazole]
  growth of M. furfur on the skin explants (CFUs): reduced the growth of the fungus
